Measurements published in PMC12079475, “Identification, validation, and characterization of approved and investigational drugs interfering with the SARS‐CoV‐2 endoribonuclease Nsp15” (Protein Science : A Publication of the Protein Society, 2025).
Like-named read-outs stand apart in the source and are kept apart here.

Experiments:
[1] = target: T1, SARS‐CoV‐2 Nsp15 (Severe acute respiratory syndrome coronavirus 2, UniProt P0DTD1); test: biochemical
[2] = tested on: SARS‐CoV Nsp15; conditions: previously reported; ref Ortiz‐Alcantara et al., 2010; read-out: inhibition potency of SARS‐CoV Nsp15; cited from earlier work
[3] = Readout interference test: compound added after the enzymatic reaction ran to completion; conditions: normalized to the DMSO control; compound added after 1 h Nsp15/substrate reaction
[4] = target: T1, SARS‐CoV‐2 Nsp15; test: biochemical; assay type: biochemical; conditions: for inhibition at 10 µM: read-out: Inhibition % +L-Cys 10 µM
[5] = target: T2, Nsp15 (Severe acute respiratory syndrome coronavirus 2, UniProt P0DTD1); conditions: measured particle size
[6] = target: T2, Nsp15
[7] = tested on: SARS‐CoV‐2 in Vero‐E6 cells; set-up: method as in Zaliani et al., 2022; conditions: ref Zaliani et al., 2022, read-out: EC50 cytopathic (CPE) assay; cited from earlier work
[8] = tested on: Vero‐E6 cells; conditions: cited from earlier work
[9] = set-up: method as in Zhao et al., 2021; conditions: ref Zhao et al., 2021; cited from earlier work
[10] = DTT buffer, 30 min pre-incubation, read-out: IC50
[11] = 1 mM DTT buffer, confidence interval in brackets, read-out: IC50 + DTT (μM) (CI in μM)
[12] = DTT buffer (Table S1), read-out: IC50 +DTT
[13] = 1 mM L-cysteine buffer, confidence interval in brackets, read-out: IC50 + L‐Cys (μM) (CI in μM)
[14] = hit confirmation, 10 µM, DTT buffer, read-out: HC inhibition % +DTT 10 µM
[15] = primary screen, 10 µM (Table S1), read-out: PS Inhibition % 10 µM
[16] = primary screen, 10 μM compound, 1 mM DTT buffer, normalized to 50 μM Congo red (100%) and DMSO (0%), read-out: PS inhibition % 10 μM (single point measurement)

Nc1c(/N=N/c2ccc(-c3ccc(/N=N/c4cc(S(=O)(=O)O)c5ccccc5c4N)cc3)cc2)cc(S(=O)(=O)O)c2ccccc12 [Congo red]
IC50 [1, 10]: 7.5 µM
IC50 [2]: 2.5 µM

CC[n+]1c(-c2ccccc2)c2cc(N)ccc2c2ccc(N)cc21 [Homidium bromide]
quenching ratio of the fluorescence signal [3]: 26.13%

CC[N+](C)(CC)CCC[n+]1c(-c2ccccc2)c2cc(N)ccc2c2ccc(N)cc21.[I-].[I-] [Propidium‐iodide]
IC50 [1, 11]: 0.9 µM
IC50 [1, 12]: 0.95 µM
HC inhibition % +DTT 10 µM ([1]; hit confirmation, 10 µM, DTT buffer): 85,94%
PS Inhibition % 10 µM ([1]; primary screen, 10 µM (Table S1)): 83,07%
PS inhibition % 10 μM (single point measurement) ([1]; primary screen, 10 μM compound, 1 mM DTT buffer, normalized to 50 μM Congo red (100%) and DMSO (0%)): 83.1%
Inhibition % +L-Cys 10 µM ([4]; 10 µM, L-cysteine buffer): 68,98%
IC50 [4, 13]: 9 µM
effect on the hexameric Nsp15 structure (DLS) [5]: significantly affected the hexameric Nsp15 structure
ΔT m°C nDSF [6]: 0.7 °C

COc1cc2c(NC3CCN(C4CCCCC4)CC3)nc(N3CCCN(C(C)C)CC3)nc2cc1OCCCN1CCCCC1 [UNC0646]
IC50 [1, 11]: 1.4 µM
IC50 [1, 10]: 1.36 µM
inhibition at 10 µM [1, 14]: 83.2%
inhibition at 10 µM [1, 15]: 75.3%
inhibition at 10 µM [1, 16]: 75.3%
inhibition at 10 µM ([4]; 10 µM, L-cysteine buffer): 91.3%
IC50 [4, 13]: 0.7 µM
IC50 ([4]; L‐cysteine buffer, read-out: IC50): 0.73 µM
ΔT m°C nDSF [6]: 0 °C
EC50 [7]: 35.4 µM
CC50 [8]: 18.6 µM

COCCn1c2c([n+](Cc3cnccn3)c1C)C(=O)c1ccccc1C2=O [YM‐155]
IC50 [1, 11]: 1.2 µM
IC50 [1, 12]: 1.23 µM
inhibition at 10 µM [1, 14]: 79.7%
inhibition at 10 µM [1, 15]: 74%
inhibition at 10 µM [1, 16]: 74%
inhibition at 10 µM ([4]; 10 µM, L-cysteine buffer): 12.4%
loss of the inhibition potency in L‐cysteine buffer ([4]; 1 mM L‐cysteine buffer compared with DTT buffer): more than 50%
ΔT m°C nDSF [6]: 0.1 °C
cytotoxicity in cell‐based assays [9]: no cytotoxicity at tested concentrations
